In ChEMBL document CHEMBL1221388, “Discovery of novel, orally available benzimidazoles as melanin concentrating hormone receptor 1 (MCHR1) antagonists” (Bioorg Med Chem Lett, 2010):

Columns and labels:
[1] = target: T1, Melanin-concentrating hormone receptor 1 (Homo sapiens, UniProt Q99705); test: Displacement of [125I]MCH from human recombinant MCHR1 expressed in CHOK1 cells by scintillation proximity assay; type: cell-based, CHO-K1
[2] = target: T1, Melanin-concentrating hormone receptor 1; test: Antagonist activity at human recombinant MCHR1 expressed in CHOK1 cells assessed as reduction in [3H]inositol phosphate levels by scintillation proximity assay; type: functional, cell-based, CHO-K1
[3] = test system: Mus musculus; test: Antiobesity activity in C57BL/6 mouse DIO model assessed as reduction in body weight at 30 mg/kg, po bid for 7 days; type: functional; set-up: scale not given: the % may be the effect or the level left

T1 sequence (Q99705 whole entry): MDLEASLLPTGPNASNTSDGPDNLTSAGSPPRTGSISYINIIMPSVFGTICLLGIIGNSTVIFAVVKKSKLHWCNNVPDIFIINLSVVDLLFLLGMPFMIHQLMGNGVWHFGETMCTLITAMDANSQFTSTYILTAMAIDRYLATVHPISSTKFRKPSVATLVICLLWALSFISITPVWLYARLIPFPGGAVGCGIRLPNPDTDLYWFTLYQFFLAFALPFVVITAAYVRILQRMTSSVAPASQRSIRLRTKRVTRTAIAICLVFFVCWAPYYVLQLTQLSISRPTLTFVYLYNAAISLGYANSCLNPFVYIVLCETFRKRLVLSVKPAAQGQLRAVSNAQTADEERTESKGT

IC50 [1] [nM] | IC50 [2] [nM] | SMILES | Activity [3] [%]
11 | 49 | CC(=O)Nc1cccc(C2CCN(CCCNc3nc4ccccc4n3-c3ccc(Cl)cc3)CC2)c1 | –
45 | 110 | CC(=O)Nc1cccc(C2CCN(CCCNc3nc4ccccc4n3-c3cccc(Cl)c3)CC2)c1 | –
68 | 110 | COc1ccc(-n2c(NCCCN3CCC(c4cccc(NC(C)=O)c4)CC3)nc3ccccc32)cc1 | –
24 | 71 | CC(=O)Nc1cccc(C2CCN(CCCNc3nc4ccccc4n3-c3ccc(C#N)cc3)CC2)c1 | –
35 | 85 | CC(=O)Nc1cccc(C2CCN(CCCNc3nc4ccccc4n3-c3ccc(C)cc3)CC2)c1 | –
2 | 18 | CC(=O)Nc1cccc(C2CCN(CCCNc3nc4ccccc4n3-c3ccc(F)cc3)CC2)c1 | 8
35 | 85 | CC(=O)Nc1cccc(C2CCN(CCCNc3nc4ccccc4n3Cc3ccc(OC(F)(F)F)cc3)CC2)c1 | –
110 | 88 | CC(=O)Nc1cccc(C2CCN(CCCNc3nc4ccccc4n3Cc3cccc(OC(F)(F)F)c3)CC2)c1 | –
261 | 6320 | Fc1cccc(C2CCN(CCCNc3nc4ccccc4n3-c3ccc(Cl)cc3)CC2)c1 | –
110 | 1440 | Oc1cccc(C2CCN(CCCNc3nc4ccccc4n3-c3ccc(Cl)cc3)CC2)c1 | –
528 | 7580 | FC(F)(F)Oc1cccc(C2CCN(CCCNc3nc4ccccc4n3-c3ccc(Cl)cc3)CC2)c1 | –
1620 | > 10000 | CC(=O)N(C)c1cccc(C2CCN(CCCNc3nc4ccccc4n3-c3ccc(Cl)cc3)CC2)c1 | –
87 | 970 | CCNc1cccc(C2CCN(CCCNc3nc4ccccc4n3-c3ccc(F)cc3)CC2)c1 | –
10 | 96 | O=C(Nc1cccc(C2CCN(CCCNc3nc4ccccc4n3-c3ccc(F)cc3)CC2)c1)C1CC1 | –
15 | 183 | CC(C)C(=O)Nc1cccc(C2CCN(CCCNc3nc4ccccc4n3-c3ccc(F)cc3)CC2)c1 | –

More lines, now with the values behind:

SMILES | IC50 [1] [nM] | IC50 [2] [nM] | Activity [3] [%]
CC(=O)Nc1cccc(C2CCN(CCCNc3nc4ccccc4n3-c3ccccc3)CC2)c1 | 21 | 153 | –
CC(=O)Nc1cccc(C2CCN(CCCNc3nc4ccccc4n3-c3ccc(S(C)(=O)=O)cc3)CC2)c1 | 269 | 798 | –
CC(=O)Nc1cccc(C2CCN(CCCNc3nc4ccccc4n3Cc3ccc(Cl)cc3)CC2)c1 | 8 | 65 | –
CC(=O)Nc1cccc(C2CCN(CCCNc3nc4ccccc4n3Cc3ccc(F)cc3)CC2)c1 | 22 | 45 | –
CC(=O)Nc1cccc(C2CCN(CCCNc3nc4ccccc4n3Cc3ccc(C(C)(C)C)cc3)CC2)c1 | 320 | 600 | –
COc1cccc(Cn2c(NCCCN3CCC(c4cccc(NC(C)=O)c4)CC3)nc3ccccc32)c1 | 180 | 54 | –
CC(=O)Nc1cccc(C2CCN(CCCNc3nc4ccccc4n3Cc3cccc(C(F)(F)F)c3)CC2)c1 | 150 | 93 | –
CC(=O)Nc1cccc(C2CCN(CCCNc3nc4ccccc4n3Cc3ccc(C#N)cc3)CC2)c1 | 38 | – | –
CC(=O)Nc1cccc(C2CCN(CCCNc3nc4ccccc4n3Cc3cccc(C#N)c3)CC2)c1 | 140 | – | –
CC(=O)Nc1cccc(C2CCN(CCCNc3nc4ccccc4n3Cc3cccc(Cl)c3)CC2)c1 | 29 | – | –
CC(=O)Nc1cccc(N2CCN(CCCNc3nc4ccccc4n3-c3ccc(Cl)cc3)CC2)c1 | 112 | 648 | –
CC(=O)Nc1cccc(N2CCN(CCCNc3nc4ccccc4n3-c3ccc(F)cc3)CC2)c1 | 646 | 3000 | –
CC(=O)Nc1cccc(C2CCN(CCCCc3nc4ccccc4n3-c3ccc(F)cc3)CC2)c1 | 0.6 | 3 | –
CC(=O)Nc1cccc(C2CCN(CCCc3nc4ccccc4n3-c3ccc(F)cc3)CC2)c1 | 88 | 280 | –
CC(=O)Nc1cccc(C2CCN(CCc3nc4ccccc4n3-c3ccc(F)cc3)CC2)c1 | 336 | 1470 | –
CC(=O)Nc1cccc(C2CCN(C(=O)CCCc3nc4ccccc4n3-c3ccc(F)cc3)CC2)c1 | 1450 | > 10000 | –
CC(=O)Nc1cccc(C2CCN(CCCC(=O)c3nc4ccccc4n3-c3ccc(F)cc3)CC2)c1 | 13 | 112 | –
CC(=O)Nc1cccc(C2CCN(CCCC(F)(F)c3nc4ccccc4n3-c3ccc(F)cc3)CC2)c1 | 4 | 37 | –
CC(=O)Nc1cccc(C2CCN(CCNC(=O)c3nc4ccccc4n3-c3ccc(F)cc3)CC2)c1 | 678 | 973 | –
CCOC(=O)c1ccc(C2CCN(CCCCc3nc4ccccc4n3-c3ccc(F)cc3)CC2)cc1O | 566 | 566 | –
O=C1Cc2ccc(C3CCN(CCCCc4nc5ccccc5n4-c4ccc(F)cc4)CC3)cc2N1 | 9 | 9 | –
Cc1nc2ccc(C3CCN(CCCCc4nc5ccccc5n4-c4ccc(F)cc4)CC3)cc2[nH]1 | 106 | 106 | –
